Source: patent US12617770B2, “IRAK inhibitor and preparation method therefor and use thereof” (WUHAN CREATERNA SCIENCE AND TECHNOLOGY CO., LTD., priority 2019, dated 2026)

Columns and labels:
[1] = target: T1, hERG potassium ion channel (Homo sapiens, UniProt Q12809); experiment: hERG whole-cell patch clamp in HEK-293 cell line stably expressing hERG; type: cell-based; conditions: HEK-293 cells stably expressing hERG, pH 7.4, HEK-293 cells expressing hERG, mean ± spread
T1 construct: expressed in transfected cells; host or cells: HEK-293
Protocol: The working solutions of the test compounds were ultrasonically treated for 20 min.
Patch clamping: Under an inverted microscope, recording electrodes were controlled by micromanipulator to contact with the cell. A negative voltage was applied to create a G-omega shaped connection. After forming the G-omega shaped connection, a rapid capacitance compensation was given. Under the continuous negative voltage, the cell membrane was ruptured to form a whole-cell recording configuration. In the whole-cell recording configuration, slow capacitance compensation was given, and the values of membrane capacitance and series resistance were recorded. […]
The cover glasses planted with cells were placed in the recording chamber of an inverted microscope. […] The current detected in a cell in the negative control was used as the background for the cell. […]
[formula] Basic statistics were calculated for each concentration, including mean, standard deviation (SD), standard error (SE), and replicates (n). The dose-dependent curve was fitted with the following equation and the half maximal inhibitory concentration (IC50) of the test compounds was calculated: […]

[2] = target: T2, CYP2C19 (Homo sapiens, UniProt P33261); experiment: CYP450 inhibition in human liver microsomes, CYP2C19; type: in vitro ADME; conditions: pooled (mixed) human liver microsomes, probe mephenytoin
T2 construct: co-incubated at 7 concentrations with human liver microsomes and five probe substrates; tissue Corning (USA); host or cells: mixed (pooled) human liver microsomes
Protocol: This study was intended to investigate the inhibitory effect of the test compounds on 5 major enzymes in human P450 superfamily, CYP1A2, 2C9, 2C19, 2D6 and 3A4-M. The mixed human liver microsomes used in this assay were purchased from Corning (USA). The test compound (compound 14) was co-incubated at 7 concentrations with human liver microsomes and five probe substrates (phenacetin for CYP1a2, diclofenac for CYP2C9, mephenytoin for CYP2C19, dextromethorphan for CYP2D6, midazolam for CYP3A4-M, mixed). The reaction was initiated by adding coenzyme NADPH, and terminated by adding acetonitrile containing internal standard. After the proteins were precipitated, the supernatant was centrifuged. The characteristic metabolites in the supernatant (acetaminophen for CYP1A2, 4-hydroxydiclofenac for CYP2C9, 4-hydroxymephenytoin for CYP2C19, dextrorphan for CYP2D6, 1-hydroxymidazolam for CYP3A4-M) were analyzed by LC-MS/MS. The influence of the test compounds on production of the characteristic metabolites was finally analyzed on the basis of the data obtained. A selective inhibitor (ketoconazole for CYP3A4-M) may be used as positive control. All samples were tested in duplicate.

[3] = Plasma protein binding (PPB), equilibrium dialysis, mouse plasma; type: in vitro ADME; conditions: 5 h at 37° C., read-out: Plasma protein binding (Bound %) Mouse (converted)
Protocol: The experiment is intended to determine plasma protein binding (PPB) data of the test compounds disclosed herein.
In the PPB experiment, the final administration matrix contained the test compound or a reference compound with a concentration of 1 μM and DMSO with a content of 0.2%.
Collecting samples in initial time: 25 μL of the matrix containing the compound was added into a blank 96-well collecting plate, and the plate was stored at −20° C.
An equilibrated dialysis device was prepared. 100 μL of buffer was added to the receiving side of the equilibrium dialysis plate. Then 100 μL of the administration matrix containing the compound or the reference compound was added into an administration side of the equilibrium dialysis plate. The prepared equilibrium dialysis plate was placed in a 37° C. shaker to be shaken for 5 h at 60 rpm.
Sample was prepared at the end of cultivation (5 h): Preparing sample in the receiving side: 25 μL of sample from a receiving side was taken out and placed in a 96-well sample collecting plate, and 25 μL of a corresponding matrix (blank plasma) was added for mixing: 200 μL of ACN containing an internal standard was added, shaken for 10 minutes at 600 rpm, and centrifuged at 5594 g for 15 min.
Preparing sample in the administration side: 25 μL of the sample containing test compound and reference compound from the administration side was taken out and 25 μL of a blank buffer was added for mixing; 200 μL of ACN containing an internal standard was added, shaken for 10 minutes at 600 rpm, and centrifuged at 5594 g for 15 min.
Preparing sample in initial time: the sample containing test compound and reference compound was re-melted at 37° C. in initial time and then mixed with the corresponding matrix (blank buffer) in the same volume (25 μL); 200 μL of ACN containing an internal standard was added, shaken for 10 minutes at 600 rpm, and centrifuged at 5594 g for 15 min.
After all the samples were centrifuged, 50 μL of a supernatant was taken and added into 50 μL of ultrapure water for mixing, and the samples were sent to liquid chromatography-mass spectrometry.

[4] = Pharmacokinetic study, single oral gavage dosing; type: in vivo; conditions: mouse, 40 mg/kg, 40 mpk, 15% solutol HS15 + 85% PBS, ICR mice, plasma; for AUC(0-t): read-out: Area under curve AUC0-t; for AUC(0-inf): read-out: Area under curve AUC0-∞; for MRT: read-out: Average retention time MRT; for half-life: read-out: Half life t1/2 (converted); for Cmax: read-out: Peak concentration Cmax; for Tmax: read-out: Time to peak tmax

T2 sequence (P33261 whole entry): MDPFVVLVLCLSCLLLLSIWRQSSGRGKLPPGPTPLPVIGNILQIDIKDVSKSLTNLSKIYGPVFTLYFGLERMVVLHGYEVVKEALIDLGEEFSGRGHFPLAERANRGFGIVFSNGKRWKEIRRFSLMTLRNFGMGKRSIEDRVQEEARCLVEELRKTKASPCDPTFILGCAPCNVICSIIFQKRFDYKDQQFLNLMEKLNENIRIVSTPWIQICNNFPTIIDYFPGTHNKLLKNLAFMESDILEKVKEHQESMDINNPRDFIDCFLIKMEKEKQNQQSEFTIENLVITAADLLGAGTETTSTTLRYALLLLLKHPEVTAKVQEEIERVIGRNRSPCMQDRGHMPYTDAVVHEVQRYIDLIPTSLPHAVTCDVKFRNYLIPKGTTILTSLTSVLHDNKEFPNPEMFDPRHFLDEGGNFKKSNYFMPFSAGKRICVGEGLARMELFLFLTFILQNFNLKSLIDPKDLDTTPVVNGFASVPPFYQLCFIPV
T1 sequence (Q12809 whole entry): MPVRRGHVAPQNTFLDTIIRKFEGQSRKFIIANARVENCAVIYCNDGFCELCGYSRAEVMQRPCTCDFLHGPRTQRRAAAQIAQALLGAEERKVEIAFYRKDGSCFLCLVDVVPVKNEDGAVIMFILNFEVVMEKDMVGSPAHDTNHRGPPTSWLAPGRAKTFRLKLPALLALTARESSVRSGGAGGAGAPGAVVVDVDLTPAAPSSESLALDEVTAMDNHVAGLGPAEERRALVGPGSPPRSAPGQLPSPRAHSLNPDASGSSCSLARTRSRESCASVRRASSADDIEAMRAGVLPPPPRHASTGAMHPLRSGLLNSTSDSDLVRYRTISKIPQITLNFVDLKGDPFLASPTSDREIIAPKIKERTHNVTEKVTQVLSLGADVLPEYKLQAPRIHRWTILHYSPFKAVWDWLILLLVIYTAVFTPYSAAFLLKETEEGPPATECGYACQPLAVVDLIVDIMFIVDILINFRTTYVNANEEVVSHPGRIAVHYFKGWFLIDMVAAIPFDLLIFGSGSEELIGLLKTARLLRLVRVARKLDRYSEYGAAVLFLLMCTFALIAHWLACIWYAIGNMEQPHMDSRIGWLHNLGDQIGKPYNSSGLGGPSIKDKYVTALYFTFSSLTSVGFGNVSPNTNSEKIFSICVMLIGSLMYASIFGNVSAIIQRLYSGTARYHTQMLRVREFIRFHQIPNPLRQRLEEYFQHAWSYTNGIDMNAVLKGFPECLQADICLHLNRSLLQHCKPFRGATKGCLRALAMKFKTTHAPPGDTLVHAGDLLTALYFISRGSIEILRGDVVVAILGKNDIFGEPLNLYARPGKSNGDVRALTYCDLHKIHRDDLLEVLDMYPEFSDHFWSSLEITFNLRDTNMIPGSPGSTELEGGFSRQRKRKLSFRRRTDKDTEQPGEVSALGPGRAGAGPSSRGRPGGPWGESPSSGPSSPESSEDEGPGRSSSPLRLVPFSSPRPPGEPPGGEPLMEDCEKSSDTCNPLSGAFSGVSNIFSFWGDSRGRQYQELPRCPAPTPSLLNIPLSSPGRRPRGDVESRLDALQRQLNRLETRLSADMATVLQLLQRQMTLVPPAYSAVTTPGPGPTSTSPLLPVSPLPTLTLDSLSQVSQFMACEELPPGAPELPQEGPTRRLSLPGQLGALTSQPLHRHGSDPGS

Structure (SMILES) | inhibition at 5 min, 30 µM [1] | IC50 [2] | fraction unbound at 5 h, 1 μM [3] | AUC(0-t) [4] | AUC(0-inf) [4] | MRT [4] | half-life [4] | Cmax [4] | Tmax [4]
COc1cc2nn(CCC(C)(C)O)cc2cc1NC(=O)c1cccc(C)[n+]1[O-] [Compound 163, 2-((2-(3-hydroxy-3-methylbutyl)-6-methoxy-2H-indazol-5-yl)carbamoyl)-6-methylpyridine 1-oxide] | 8.73% | > 30 µM | 0.162 | 207 µg·h/mL | 207 µg·h/mL | 6.75 h | 3.62 h | 25900 ng/mL | 4 h
COc1cc2nn([C@H]3CC[C@](C)(O)CC3)cc2cc1NC(=O)c1cccc(C)[n+]1[O-] [Compound 001, 2-((2-((1r,4r)-4-hydroxy-4-methylcyclohexyl)-6-methoxy-2H-indazol-5-yl)carbamoyl)-6-methylpyridine 1-oxide] | 5.09% | > 30 µM | 0.201 | 294 µg·h/mL | 375 µg·h/mL | 15.3 h | 11.5 h | 24200 ng/mL | 4 h
